“And” between values parts separate entries of the source, which are not always exact repeats. Equal entries are not always repeated. “Also recorded” adds a separate entry of the source.
Tests used:
cystic acne = test: Split face/back pre-PDT radiant IR study, 11 cystic acne patients (Example 7); type: in vivo, human; conditions: IR 970 nm 50 mW/cm2 15 min before 5-ALA; one month after PDT; most patients
Experimental: Study Design/Materials and Methods: Eleven (11) patients were enrolled in a split face or split back (pre-treated side versus control) study with a pre-approved IRB protocol. […] Lesion count was assessed both manually and by digital photography before and 4 weeks after one PDT procedure. Prior to the application of 5-ALA, one side of the face or back was pre-treated with radiant IR [CW LEDs emitting @λ 970 nm, irradiance 50 mW/cm2 for 15 minutes, total fluence 45 J/cm2], while the other half was used as control. PDT was then performed on the entire surface (face or back).

inflammatory acne = test: Randomized, controlled, rater-blinded split face/back trial of IR pre-treatment plus ALA-PDT vs ALA-PDT alone (Example 9); type: in vivo, human; conditions: for Change from Baseline in Lesion Counts, Closed comedones, Median / Change from Baseline in Lesion Counts, Nodules, Median / Change from Baseline in Lesion Counts, Open comedones, Median / Change from Baseline in Lesion Counts, Papules, Median / Change from Baseline in Lesion Counts, Pustules, Median / Change from Baseline in Lesion Counts, Total Noninflammatory lesions, Median: week 4; for Change from Baseline in Lesion Counts, Total Inflammatory lesions, Median: week 4 (reduction); for Clinical Global Severity Assessment at Week-4, Median: six-point scale, grade 0 clear to 5 very severe (Table 1)
Experimental: One side was pre-treated for 15 minutes with radiant IR light emitting diode (LED) (970 nm), while the other side was used as control. ALA was then applied after which PDT LED (630 nm) was performed on the entire face or back surface. Blinded lesion counts and clinical global assessment of severity were performed based on digital photographs before and four weeks after the PDT procedure.
Inclusion criteria included patients with skin type I to III according to the Fitzpatrick Classification System [^xxviii]. Exclusion criteria comprised patients taking cortisone (Prednisone), anticoagulant therapy, or any drug known to increase photosensitivity. In addition, during the 12 months preceding the study, patients were required not to have used isotretinoin (Accutane), or applied topical steroids on the site to be treated. Moreover, oral antibiotics use, laser or topical anti-acne medication at the to-be-treated site were not permitted for eight weeks prior to the study. Patients gave written informed consent to participate in this trial in compliance with the US Code of Federal Regulations dealing with the conduct of clinical studies (21 CFR including parts 50 and 56 concerning informed consent and IRB regulations). The study was conducted according to Good Clinical Practice Guidelines and the principles of the Declaration of Helsinki, and was approved by the Institutional Review Board Services (Div. 1373737 Toronto, Canada).
Patients were assigned to a split face or split back group to allow for within-patient assessments of clinical effects. Assignment was based on the patient's problem area. One side was randomly (using a coin flip) assigned to receive IR pre-treatment and ALA-PDT, and the other ALA-PDT alone to serve as control. The IR pre-treatment consisted of a 15 minute exposure to radiant IR LED at 970 nm ([…] using the LumiPhase-R/IR™, OPUSMED Inc. Montreal, Canada) to reach peak H2O absorption inside-out temperature of 45° C. Papillary dermis temperature was monitored with a needle probe throughout the session and up to 40 minutes (Type-T thermocouple, Omega, Montreal, Canada). ALA (20% Levulan Kerastick, DUSA Pharmaceuticals, USA) was then applied on both sides for 60 minutes, after which PDT with LED at 630 nm (50 mW/cm^2, 70 J/cm^2) was performed on the entire face or back surface for a duration of 23 minutes (LumiPhase-R/B™, OPUSMED Inc. Montreal, Canada). No cooling method was used. Digital photographs (Canon Dual Flash EOS 10D, Canon, Tokyo, Japan with EX SIGMA 50 mm 1:2.8 macro lens, Sigma, Aizu, Japan) were taken prior to and four weeks after the procedure. Each photograph was taken maintaining identical ambient lighting, pose and camera angles.
Acne lesion counts were performed before and four weeks after the PDT treatment. All types of inflammatory (papules, pustules, nodules) and noninflammatory (open and closed comedones) acne lesions were counted. Lesion counts were performed based on the digital photographs by two non-treating physicians who were blinded to the treatment regimen (IR-treated or control side) and to the timing of the photographs (baseline or post-treatment).
The global severity of acne was assessed at the end of the study by the […] non-treating physicians, as described above, using a six-point rating scale (Table 1). Clinical success was defined by grades 0 (clear) or 1 (almost clear).
Adverse reactions were monitored throughout the study. Signs of erythema, oedema, scaling/crusting, bronzing, textural changes, hyperpigmentation, and hypopigmentation were documented during the time period of the clinical trial.
Cronbach's alpha was calculated to assess inter-rater reliability in assessments. Reliability was deemed acceptable if Cronbach alpha was […] allowing raters' assessments to be combined for analysis. The primary outcome variable was the percent change from baseline in inflammatory lesion count measured four weeks post-treatment. […]

[1] = system: actinic keratosis lesions; test: Split-face radiant IR skin preparation prior to PDT, actinic keratosis of face and scalp (Example 5); conditions: single PDT treatment
[2] = system: conversion of 5-ALA to protoporphyrin IX (PpIX); test: Fluoderm fluorescence after 940 nm photopreparation and 5-ALA, one subject (Example 11); type: in vivo, human
Experimental: In order to measure the effect of photopreparation on the skin we used an LED device (Lumiphase 940 nm, CW and Pulsed, irradiance: 70 mW/cm2, OpusMed, Montreal, Canada) prior to the application of a photosensitizer (5-ALA: Levulan, Kerastick, DUSA Pharmaceuticals, USA). We tested both CW and sequential pulsing modes 24 h and 30/15 minutes (total fluence 63 J/cm^2 before the application of 5-ALA for 3 hours). Following an incubation time of 3 hours, we measured the fluorescence induced by the conversion of 5-ALA to protoporphyrin IX (PpIX) with a dedicated device (Fluoderm, Dia-Medico ApS, Danemark). The pulsed radiation, referred to as D50 hereinbelow, consisted in pulse trains of 4 pulses with pulses lasting 500 μs separated with an inter-pulse interval within each train of 150 μs. The pulse trains were separated from each other by 1550 μs. Higher numbers mean higher conversion to PpIX, and thus indicate that the PDT treatment will be more efficient. All parameters were tested on adjacent portion of the subject's skin. The experiment was performed on the back of a person with phototype I.

SMILES: NCC(=O)CCC(=O)O [5-ALA, 5-aminolevulinic acid]
- number of cystic lesions, pre-treated versus control side (cystic acne): statistically significant decrease in the number of cystic lesions
- Change from Baseline in Lesion Counts, Closed comedones, Median (inflammatory acne; Control side (ALA-PDT alone)): 0.00%
- Change from Baseline in Lesion Counts, Nodules, Median (inflammatory acne; Control side (ALA-PDT alone)): 20.00%
- Change from Baseline in Lesion Counts, Open comedones, Median (inflammatory acne; Control side (ALA-PDT alone)): 0.00%
- Change from Baseline in Lesion Counts, Papules, Median (inflammatory acne; Control side (ALA-PDT alone)): 38.10%
- Change from Baseline in Lesion Counts, Pustules, Median (inflammatory acne; Control side (ALA-PDT alone)): 0.00%
- Change from Baseline in Lesion Counts, Total Noninflammatory lesions, Median (inflammatory acne; Control side (ALA-PDT alone)): 0.00%
- Change from Baseline in Lesion Counts, Total Inflammatory lesions, Median (inflammatory acne; Control side (ALA-PDT alone), listed as ALA): 38% and 37.86%
- Clinical Global Severity Assessment at Week-4, Median (inflammatory acne; Control side): 2
- treatment-related adverse effects / tolerability (inflammatory acne; IR pre-treatment + ALA-PDT and ALA-PDT alone, listed as ALA): No unusual treatment-related adverse effects were observed; also recorded: overall well tolerated
- Clinical Global Severity Assessment at Week-4, Median (inflammatory acne; IR-Treated side): 1
- Change from Baseline in Lesion Counts, Closed comedones, Median (inflammatory acne; IR-Treated side): 0.00%
- Change from Baseline in Lesion Counts, Nodules, Median (inflammatory acne; IR-Treated side): 100.00%
- Change from Baseline in Lesion Counts, Open comedones, Median (inflammatory acne; IR-Treated side): 0.00%
- Change from Baseline in Lesion Counts, Papules, Median (inflammatory acne; IR-Treated side): 75.00%
- Change from Baseline in Lesion Counts, Pustules, Median (inflammatory acne; IR-Treated side): 37.65%
- Change from Baseline in Lesion Counts, Total Noninflammatory lesions, Median (inflammatory acne; IR-Treated side): 0.00%
- Change from Baseline in Lesion Counts, Total Inflammatory lesions, Median (inflammatory acne; IR-Treated side, listed as ALA): 73% and 73.21%
- clinical success rate (almost clear or clear categories) (inflammatory acne; IR-treated side, week-4): 78%
- additional benefit of IR-treated side in inflammatory lesion count reduction (inflammatory acne; IR-treated vs control side, week-4): 35%
- clinical success rate (almost clear or clear categories) (inflammatory acne; control side, week-4): 44%
- time until slight erythema post-PDT disappeared (inflammatory acne; most patients): ≤ 48 h
- duration of acneiform folliculitis (inflammatory acne; two patients): 3 to 4 days
- lesion clearance ([1]; left side, no IR pre-treatment): 40%
- lesion clearance ([1]; right side, IR pre-treated (970 nm, 40 mW/cm2, 30 min), 90 min incubation): 60%
- Fold increase of fluorescence compared to 5-ALA alone ([2]; PP 15 min pre-5-ALA: CW - 15 min): 1.09 fold and 1.03 fold
- Fluoderm Measurements, Post 3 hour incubation (5-ALA) ([2]; PP 15 min pre-5-ALA: CW - 15 min, 940 nm, 70 mW/cm2): 51
- Fold increase of fluorescence compared to 5-ALA alone ([2]; PP 30 min pre-5-ALA: D50 - 30 min): 1.19 fold
- Fluoderm Measurements, Post 3 hour incubation (5-ALA) ([2]; PP 30 min pre-5-ALA: D50 - 30 min, 940 nm, 70 mW/cm2): 59
- Fold increase of fluorescence compared to 5-ALA alone ([2]; PP 24 h pre-5-ALA: CW - 15 min): 1.13 fold
- Fluoderm Measurements, Post 3 hour incubation (5-ALA) ([2]; PP 24 h pre-5-ALA: CW - 15 min, 940 nm, 70 mW/cm2): 56
- Fold increase of fluorescence compared to 5-ALA alone ([2]; PP 24 h pre-5-ALA: D50 - 30 min): 1.45 fold
- Fluoderm Measurements, Post 3 hour incubation (5-ALA) ([2]; PP 24 h pre-5-ALA: D50 - 30 min, 940 nm, 70 mW/cm2): 72
- Fold increase of fluorescence compared to 5-ALA alone ([2]; Positive control: 5-ALA alone): 1 fold
- Fluoderm Measurements, Post 3 hour incubation (5-ALA) ([2]; Positive control: 5-ALA alone, no photopreparation): 49.5
